Data from US20260151383A1, “HETEROCYCLIC COMPOUNDS AND USES THEREOF” (KayoThera Inc., priority 2022, published 2026).

Assays:
Assay type in all cases: biochemical
Settings in all cases: recombinant enzyme, 20° C., activity level classes
[1] = biological target: T1, hALDH1a2 (Homo sapiens, UniProt O94788); experiment: Aldh1a2 enzyme inhibition assay (resorufin fluorescence), human enzyme
T1 construct: made in house; host or cells: E. coli BL21-DE3
T1 sequence (O94788 1-518): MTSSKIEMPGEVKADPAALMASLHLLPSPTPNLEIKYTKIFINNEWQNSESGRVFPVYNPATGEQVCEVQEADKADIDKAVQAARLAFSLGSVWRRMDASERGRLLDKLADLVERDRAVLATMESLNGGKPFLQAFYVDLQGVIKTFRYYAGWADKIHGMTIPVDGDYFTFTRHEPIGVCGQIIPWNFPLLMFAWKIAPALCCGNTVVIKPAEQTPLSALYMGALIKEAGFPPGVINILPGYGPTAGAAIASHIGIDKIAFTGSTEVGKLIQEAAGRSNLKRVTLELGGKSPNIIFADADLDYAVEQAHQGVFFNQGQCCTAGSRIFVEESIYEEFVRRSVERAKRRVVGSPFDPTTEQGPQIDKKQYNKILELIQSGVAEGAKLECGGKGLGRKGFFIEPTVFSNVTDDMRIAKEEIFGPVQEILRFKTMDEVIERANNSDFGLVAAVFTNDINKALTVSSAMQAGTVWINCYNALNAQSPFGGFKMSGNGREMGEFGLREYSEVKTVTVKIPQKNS
Source text: (§1) Recombinant enzyme and inhibitor added immediately before assay. Reaction rate measured by resorufln fluorescence.

[2] = biological target: T2, mALDH1a2 (Mus musculus, UniProt Q62148); experiment: Aldh1a2 enzyme inhibition assay (resorufin fluorescence), mouse enzyme
T2 construct: made in house; host or cells: E. coli BL21-DE3
T2 sequence (Q62148 1-518): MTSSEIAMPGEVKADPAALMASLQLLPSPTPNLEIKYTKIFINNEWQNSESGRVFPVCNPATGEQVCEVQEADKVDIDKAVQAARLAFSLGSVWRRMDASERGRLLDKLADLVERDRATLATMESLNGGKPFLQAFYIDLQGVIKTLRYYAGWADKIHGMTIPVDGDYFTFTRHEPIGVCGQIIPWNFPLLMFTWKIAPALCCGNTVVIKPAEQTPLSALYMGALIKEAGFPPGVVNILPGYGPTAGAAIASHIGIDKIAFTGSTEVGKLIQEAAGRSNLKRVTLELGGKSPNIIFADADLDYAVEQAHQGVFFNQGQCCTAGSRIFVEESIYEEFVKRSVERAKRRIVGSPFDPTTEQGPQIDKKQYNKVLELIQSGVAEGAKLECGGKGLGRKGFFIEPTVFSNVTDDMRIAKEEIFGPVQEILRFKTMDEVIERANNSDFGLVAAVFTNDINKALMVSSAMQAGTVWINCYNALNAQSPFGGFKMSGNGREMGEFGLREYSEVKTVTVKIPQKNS
Source text: as §1

[3] = biological target: T3, mALDH1a3 (Mus musculus, UniProt Q9JHW9); experiment: Aldh1a3 enzyme inhibition assay (resorufin fluorescence), mouse enzyme
T3 construct: made in house; host or cells: E. coli BL21-DE3
T3 sequence (Q9JHW9 1-512): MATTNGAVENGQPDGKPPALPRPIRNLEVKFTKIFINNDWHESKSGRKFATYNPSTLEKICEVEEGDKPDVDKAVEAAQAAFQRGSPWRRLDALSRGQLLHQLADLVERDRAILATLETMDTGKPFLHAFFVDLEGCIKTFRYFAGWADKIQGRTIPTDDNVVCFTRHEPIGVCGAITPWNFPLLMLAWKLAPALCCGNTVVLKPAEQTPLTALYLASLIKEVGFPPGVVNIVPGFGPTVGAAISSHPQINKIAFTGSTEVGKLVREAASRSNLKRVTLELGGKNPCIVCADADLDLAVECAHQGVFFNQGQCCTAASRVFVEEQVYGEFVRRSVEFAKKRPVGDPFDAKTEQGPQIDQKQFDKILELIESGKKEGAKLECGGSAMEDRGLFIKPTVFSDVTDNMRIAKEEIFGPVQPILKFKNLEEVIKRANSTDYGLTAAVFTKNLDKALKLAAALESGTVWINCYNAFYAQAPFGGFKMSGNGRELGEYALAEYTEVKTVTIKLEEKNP
Source text: Recombinant enzyme and inhibitor added immediately before assay. Reaction rate measured by resorufin fluorescence.

[4] = biological target: T4, hALDH1a3 (Homo sapiens, UniProt P47895); experiment: Aldh1a3 enzyme inhibition assay (resorufin fluorescence), human enzyme
T4 construct: made in house; host or cells: E. coli BL21-DE3
T4 sequence (P47895 1-512): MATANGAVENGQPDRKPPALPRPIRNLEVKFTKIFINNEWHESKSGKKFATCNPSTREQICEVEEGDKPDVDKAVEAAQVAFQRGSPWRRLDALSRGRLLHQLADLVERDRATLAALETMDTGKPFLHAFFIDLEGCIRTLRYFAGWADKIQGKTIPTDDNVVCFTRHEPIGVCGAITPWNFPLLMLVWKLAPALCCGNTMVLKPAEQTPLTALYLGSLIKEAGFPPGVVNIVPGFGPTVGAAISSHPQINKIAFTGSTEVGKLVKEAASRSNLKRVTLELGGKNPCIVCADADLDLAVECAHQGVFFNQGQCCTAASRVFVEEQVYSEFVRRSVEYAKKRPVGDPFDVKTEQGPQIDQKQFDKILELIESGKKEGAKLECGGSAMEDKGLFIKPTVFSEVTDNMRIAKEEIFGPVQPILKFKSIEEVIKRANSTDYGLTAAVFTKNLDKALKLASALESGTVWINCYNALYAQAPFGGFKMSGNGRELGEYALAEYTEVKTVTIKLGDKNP

IC50 [1] | IC50 [2] | mAldh1a3 IC50 [3] | hAldh1a3 IC50 [4] | IC50 [3] | IC50 [4] | Compound
> 5000 nM | > 5000 nM | No activity | No activity |  |  | Cc1cc(NC(=O)c2ccncc2-c2ccccc2C#N)cc2c1NC(=O)CC2 [Compound 16]
> 5000 nM | > 5000 nM | No activity | No activity |  |  | Cc1cc(NC(=O)c2ccncc2-c2ccc(C#N)cc2)cc2c1NC(=O)CC2 [Compound 14]
1000 to 5000 nM | 1000 to 5000 nM |  |  | 1000 to 5000 nM | 1000 to 5000 nM | Cc1cc(OCCN(C)Cc2cccc(F)c2)cc2c1NC(=O)CC2 [Compound 10]
250 to 1000 nM | 250 to 1000 nM |  |  | 100 to 250 nM | 100 to 250 nM | CCCc1ncsc1C(=O)Nc1cc(C)c2c(c1)CCC(=O)N2 [Compound 66]
250 to 1000 nM | 250 to 1000 nM |  |  | 100 to 250 nM | 1000 to 5000 nM | CCc1scnc1C(=O)Nc1cc2c(c(C3CC3)c1)NC(=O)CC2 [Compound 45]
100 to 250 nM | < 100 nM |  |  | < 100 nM | < 100 nM | Cc1c(Cl)c(NC(=O)c2ncsc2CC(F)(F)F)cc2c1NC(=O)CC2 [Compound 73]
1000 to 5000 nM | 1000 to 5000 nM | No activity | No activity |  |  | Cc1cc(NC(=O)c2ccncc2-c2cccc(O)c2)cc2c1NC(=O)CC2 [Compound 18]
1000 to 5000 nM | 1000 to 5000 nM |  |  | 250 to 1000 nM | 250 to 1000 nM | Cc1cc(NC(=O)c2scnc2C)cc2c1NC(=O)CC2 [Compound 67]
> 5000 nM | > 5000 nM |  |  | 1000 to 5000 nM | > 5000 nM | Cc1cc(NC(=O)c2ccncc2CC(F)(F)F)cc2c1NC(=O)CS2(=O)=O [Compound 28]
1000 to 5000 nM | 1000 to 5000 nM |  |  | 250 to 1000 nM | 100 to 250 nM | Cc1cc(NC(=O)c2scnc2CC(C)C)cc2c1NC(=O)CC2 [Compound 65]
100 to 250 nM | 100 to 250 nM |  |  | 100 to 250 nM | 100 to 250 nM | Cc1cc(NC(=O)c2ocnc2CC(F)(F)F)cc2c1NC(=O)C1CC21 (stereo not shown) [Compound 82]
100 to 250 nM | 250 to 1000 nM |  |  | 100 to 250 nM | < 100 nM | O=C1CCc2cc(NC(=O)c3ncsc3CC(F)(F)F)cc(Cl)c2N1 [Compound 75]
100 to 250 nM | 250 to 1000 nM |  |  |  |  | Cc1c(Cl)c(NC(=O)c2scnc2CC(F)(F)F)cc2c1NC(=O)CC2 [Compound 80]
250 to 1000 nM | 250 to 1000 nM |  |  |  |  | CCc1ncsc1C(=O)Nc1cc2c(c(C)c1Cl)NC(=O)CC2 [Compound 81]
250 to 1000 nM | 1000 to 5000 nM |  |  |  |  | Cc1c(F)c(NC(=O)c2scnc2CC(F)(F)F)cc2c1NC(=O)CC2 [Compound 78]
250 to 1000 nM | 250 to 1000 nM |  |  |  |  | CCc1ncsc1C(=O)Nc1cc2c(c(C)c1F)NC(=O)CC2 [Compound 79]
< 100 nM | < 100 nM |  |  |  |  | CCc1ncsc1C(=O)Nc1cc(Cl)c2c(c1)CCC(=O)N2 [Compound 83]
